From ChEMBL document CHEMBL5696442, “Discovery of type II inhibitors of TGFβ-activated kinase 1 (TAK1) and mitogen-activated protein kinase kinase kinase kinase 2 (MAP4K2)” (J Med Chem, 2015)

Legend:
[1] = molecular target: STE20-like serine/threonine-protein kinase (Homo sapiens) (UniProt Q9H2G2); assay: Inhibition of SLK Lys2 labeling site harbouring IIHRDLKAGNILFTLDGDIK in human Huh-7 cell lysate at 1 uM by KiNativ Profiling analysis relative to control; type: subcellular
[2] = molecular target: Ribosomal protein S6 kinase alpha-3 (Homo sapiens) (UniProt P51812); assay: Inhibition of RSK2 domain1 ACT labeling site LTDFGLSKESIDHEK in human Huh-7 cell lysate at 1 uM by KiNativ Profiling analysis relative to control; type: subcellular
[3] = molecular target: T1, Serine/threonine-protein kinase 3 (Homo sapiens) (UniProt Q13188); assay: Inhibition of MST2 Lys1 labeling site in human Huh-7 cells at 1 uM by KiNativ Profiling analysis relative to control; type: cell-based
T1 sequence (whole entry): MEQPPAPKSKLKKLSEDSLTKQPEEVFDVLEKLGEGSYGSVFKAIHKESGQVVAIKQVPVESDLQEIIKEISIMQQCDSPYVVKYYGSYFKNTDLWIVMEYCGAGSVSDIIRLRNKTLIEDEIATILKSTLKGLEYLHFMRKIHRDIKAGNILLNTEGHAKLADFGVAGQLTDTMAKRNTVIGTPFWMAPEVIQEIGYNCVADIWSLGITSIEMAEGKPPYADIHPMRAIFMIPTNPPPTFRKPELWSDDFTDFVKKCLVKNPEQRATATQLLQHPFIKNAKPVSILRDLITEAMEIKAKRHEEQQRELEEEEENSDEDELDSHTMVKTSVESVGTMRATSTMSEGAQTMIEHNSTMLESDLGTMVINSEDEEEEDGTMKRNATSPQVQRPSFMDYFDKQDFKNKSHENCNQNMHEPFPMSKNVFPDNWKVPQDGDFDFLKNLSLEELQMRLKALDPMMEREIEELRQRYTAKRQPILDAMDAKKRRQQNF

[4] = molecular target: Calcium/calmodulin-dependent protein kinase type II subunit gamma (Homo sapiens) (UniProt Q13555); assay: Inhibition of CaMK2g Lys1 labeling site harbouring TSTQEYAAKIINTKK in human Huh-7 cells at 1 uM by KiNativ Profiling analysis relative to control; type: cell-based
[5] = test system: Tyrosine-protein kinase ABL1 (Homo sapiens), P00519 [M351T]; assay: Inhibition of ABL1 M351T mutant (unknown origin) at 10 uM by Ambit Kinomescan binding assay relative to control
[6] = molecular target: Ephrin type-A receptor 4 (Homo sapiens) (UniProt P54764); assay: Inhibition of EPHA4 (unknown origin) at 10 uM by Ambit Kinomescan binding assay relative to control
[7] = molecular target: Cyclin-dependent kinase 5 (Homo sapiens) (UniProt Q00535); assay: Inhibition of CDK5 K2 labeling site harbouring DLKPQNLLINR in human Huh-7 cells at 10 uM by KiNativ Profiling analysis relative to control; type: cell-based
[8] = molecular target: Ribosomal protein S6 kinase alpha-3 (Homo sapiens) (UniProt P51812); assay: Inhibition of RSK2 Domain 1 ACT labeling site harbouring LTDFGLSKESIDHEKK in human Huh-7 cells at 10 uM by KiNativ Profiling analysis relative to control; type: cell-based
[9] = molecular target: Serine/threonine-protein kinase A-Raf (Homo sapiens) (UniProt P10398); assay: Inhibition of ARAF Lys2 labeling site in human A-375 cells at 0.5 uM by KiNativ Profiling analysis relative to control; type: cell-based
[10] = molecular target: Cyclin-dependent kinase 16 (Homo sapiens) (UniProt Q00536); assay: Inhibition of PCTAIRE1 Lys1 labeling site in human A-375 cells at 0.05 uM by KiNativ Profiling analysis relative to control; type: cell-based
[11] = molecular target: 1-phosphatidylinositol 3-phosphate 5-kinase (Homo sapiens) (UniProt Q9Y2I7); assay: Inhibition of PIP5K3 ATP labeling site in human Huh-7 cells at 1 uM by KiNativ Profiling analysis relative to control; type: cell-based
[12] = molecular target: Tyrosine-protein kinase CSK (Homo sapiens, UniProt P41240); assay: Inhibition of CSK ACT labeling site harbouring VSDFGLTKEASSTQDTGK in human A-375 cells at 5 uM by KiNativ Profiling analysis relative to control; type: cell-based
[13] = molecular target: p38 delta/gamma (Homo sapiens) (UniProt O15264+P53778); assay: Inhibition of p38d/g K2 labeling site in human Huh-7 cells at 10 uM by KiNativ Profiling analysis relative to control; type: cell-based
[14] = molecular target: Tyrosine-protein kinase JAK1 (Homo sapiens) (UniProt P23458); assay: Inhibition of JAK1 JH1 catalytic domain (unknown origin) at 10 uM by Ambit Kinomescan binding assay relative to control
[15] = molecular target: T2, Mitogen-activated protein kinase kinase kinase 2 (Homo sapiens) (UniProt Q9Y2U5); assay: Inhibition of MAP3K2 Lys2 labeling site in human A-375 cells at 0.05 uM by KiNativ Profiling analysis relative to control; type: cell-based
T2 sequence (whole entry): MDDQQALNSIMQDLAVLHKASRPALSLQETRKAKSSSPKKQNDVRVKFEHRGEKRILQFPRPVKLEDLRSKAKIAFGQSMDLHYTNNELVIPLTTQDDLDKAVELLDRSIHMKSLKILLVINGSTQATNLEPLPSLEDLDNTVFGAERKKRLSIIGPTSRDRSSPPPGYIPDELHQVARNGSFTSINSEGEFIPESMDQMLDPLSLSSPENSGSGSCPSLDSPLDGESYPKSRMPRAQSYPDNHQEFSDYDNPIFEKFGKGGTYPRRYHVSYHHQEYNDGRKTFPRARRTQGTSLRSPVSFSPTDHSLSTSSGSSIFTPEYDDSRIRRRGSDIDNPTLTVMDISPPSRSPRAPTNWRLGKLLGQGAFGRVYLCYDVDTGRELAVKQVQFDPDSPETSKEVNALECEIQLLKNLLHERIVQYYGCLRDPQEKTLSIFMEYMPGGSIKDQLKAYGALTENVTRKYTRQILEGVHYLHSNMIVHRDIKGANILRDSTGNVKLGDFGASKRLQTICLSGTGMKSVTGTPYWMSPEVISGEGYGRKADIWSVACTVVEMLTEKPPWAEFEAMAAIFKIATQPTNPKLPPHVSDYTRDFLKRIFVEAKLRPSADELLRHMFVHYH

[16] = molecular target: Ankyrin repeat and protein kinase domain-containing protein 1 (Homo sapiens) (UniProt Q8NFD2); assay: Inhibition of ANKK1 (unknown origin) at 10 uM by Ambit Kinomescan binding assay relative to control
[17] = molecular target: Cyclin-dependent kinase 11B (Homo sapiens) (UniProt P21127); assay: Inhibition of CDC2L1 (unknown origin) at 1 uM by Ambit Kinomescan binding assay relative to control
[18] = molecular target: Serine/threonine-protein kinase MRCK gamma (Homo sapiens) (UniProt Q6DT37); assay: Inhibition of DMPK2 (unknown origin) at 1 uM by Ambit Kinomescan binding assay relative to control; values are per cent of control
[19] = molecular target: Serine/threonine-protein kinase MRCK beta (Homo sapiens) (UniProt Q9Y5S2); assay: Inhibition of MRCKb in human A-375 cells at 5 uM by KiNativ Profiling analysis relative to control; type: cell-based
[20] = molecular target: Receptor tyrosine-protein kinase erbB-4 (Homo sapiens) (UniProt Q15303); assay: Inhibition of ERBB4 (unknown origin) at 1 uM by Ambit Kinomescan binding assay relative to control

Chain of Ribosomal protein S6 kinase alpha-3 (Homo sapiens) (P51812 whole entry, the tested form may be a part): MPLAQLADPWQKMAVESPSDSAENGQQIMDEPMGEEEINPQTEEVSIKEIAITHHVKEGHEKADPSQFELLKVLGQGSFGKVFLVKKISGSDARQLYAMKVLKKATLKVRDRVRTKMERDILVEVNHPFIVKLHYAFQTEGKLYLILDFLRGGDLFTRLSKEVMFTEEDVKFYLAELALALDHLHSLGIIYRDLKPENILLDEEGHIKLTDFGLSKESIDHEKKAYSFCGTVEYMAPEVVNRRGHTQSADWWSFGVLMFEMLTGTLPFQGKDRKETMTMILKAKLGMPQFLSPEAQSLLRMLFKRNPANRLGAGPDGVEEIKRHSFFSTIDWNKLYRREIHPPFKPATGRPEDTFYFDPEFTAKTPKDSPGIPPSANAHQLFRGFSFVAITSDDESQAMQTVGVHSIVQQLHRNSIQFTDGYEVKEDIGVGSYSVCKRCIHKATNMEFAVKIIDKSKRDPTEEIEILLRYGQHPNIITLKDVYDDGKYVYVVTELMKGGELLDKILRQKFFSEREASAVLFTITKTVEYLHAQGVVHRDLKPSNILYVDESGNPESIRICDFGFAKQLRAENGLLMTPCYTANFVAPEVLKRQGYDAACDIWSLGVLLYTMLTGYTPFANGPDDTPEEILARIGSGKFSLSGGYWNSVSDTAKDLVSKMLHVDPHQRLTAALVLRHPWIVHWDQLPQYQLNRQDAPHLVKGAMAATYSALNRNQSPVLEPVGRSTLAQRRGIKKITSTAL
Chain of Tyrosine-protein kinase JAK1 (Homo sapiens) (P23458 whole entry, the tested form may be a part): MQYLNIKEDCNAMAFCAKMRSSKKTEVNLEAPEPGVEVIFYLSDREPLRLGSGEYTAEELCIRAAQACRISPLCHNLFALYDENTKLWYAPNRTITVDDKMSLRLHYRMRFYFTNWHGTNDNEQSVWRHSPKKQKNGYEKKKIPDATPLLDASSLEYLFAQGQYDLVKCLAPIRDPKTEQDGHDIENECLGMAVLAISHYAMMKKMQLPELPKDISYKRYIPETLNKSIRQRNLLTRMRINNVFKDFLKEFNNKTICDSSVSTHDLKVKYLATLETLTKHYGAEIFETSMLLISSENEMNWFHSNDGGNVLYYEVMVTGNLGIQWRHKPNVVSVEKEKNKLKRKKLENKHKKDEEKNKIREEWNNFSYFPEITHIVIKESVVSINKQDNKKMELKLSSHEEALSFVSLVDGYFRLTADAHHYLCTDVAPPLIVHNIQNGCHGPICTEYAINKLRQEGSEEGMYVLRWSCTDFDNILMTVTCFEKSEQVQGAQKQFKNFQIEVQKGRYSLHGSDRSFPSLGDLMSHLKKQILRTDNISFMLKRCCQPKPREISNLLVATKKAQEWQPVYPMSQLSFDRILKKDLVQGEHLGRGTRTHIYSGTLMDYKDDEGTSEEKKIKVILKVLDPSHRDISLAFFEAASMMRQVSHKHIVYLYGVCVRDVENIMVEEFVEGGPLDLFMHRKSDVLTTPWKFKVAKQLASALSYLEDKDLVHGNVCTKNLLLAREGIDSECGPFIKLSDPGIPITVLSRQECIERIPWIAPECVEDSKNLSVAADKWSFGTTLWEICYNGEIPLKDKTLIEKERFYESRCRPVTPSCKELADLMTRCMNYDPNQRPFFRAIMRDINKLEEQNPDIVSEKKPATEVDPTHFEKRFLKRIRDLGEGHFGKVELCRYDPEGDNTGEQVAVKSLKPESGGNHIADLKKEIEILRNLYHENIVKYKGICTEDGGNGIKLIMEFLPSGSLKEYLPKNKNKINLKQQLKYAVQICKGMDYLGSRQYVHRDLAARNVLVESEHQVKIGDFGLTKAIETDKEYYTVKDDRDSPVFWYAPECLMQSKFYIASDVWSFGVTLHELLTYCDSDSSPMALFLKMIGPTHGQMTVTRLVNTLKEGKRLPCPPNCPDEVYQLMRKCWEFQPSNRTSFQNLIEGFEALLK
Chain of Ephrin type-A receptor 4 (Homo sapiens) (P54764 whole entry): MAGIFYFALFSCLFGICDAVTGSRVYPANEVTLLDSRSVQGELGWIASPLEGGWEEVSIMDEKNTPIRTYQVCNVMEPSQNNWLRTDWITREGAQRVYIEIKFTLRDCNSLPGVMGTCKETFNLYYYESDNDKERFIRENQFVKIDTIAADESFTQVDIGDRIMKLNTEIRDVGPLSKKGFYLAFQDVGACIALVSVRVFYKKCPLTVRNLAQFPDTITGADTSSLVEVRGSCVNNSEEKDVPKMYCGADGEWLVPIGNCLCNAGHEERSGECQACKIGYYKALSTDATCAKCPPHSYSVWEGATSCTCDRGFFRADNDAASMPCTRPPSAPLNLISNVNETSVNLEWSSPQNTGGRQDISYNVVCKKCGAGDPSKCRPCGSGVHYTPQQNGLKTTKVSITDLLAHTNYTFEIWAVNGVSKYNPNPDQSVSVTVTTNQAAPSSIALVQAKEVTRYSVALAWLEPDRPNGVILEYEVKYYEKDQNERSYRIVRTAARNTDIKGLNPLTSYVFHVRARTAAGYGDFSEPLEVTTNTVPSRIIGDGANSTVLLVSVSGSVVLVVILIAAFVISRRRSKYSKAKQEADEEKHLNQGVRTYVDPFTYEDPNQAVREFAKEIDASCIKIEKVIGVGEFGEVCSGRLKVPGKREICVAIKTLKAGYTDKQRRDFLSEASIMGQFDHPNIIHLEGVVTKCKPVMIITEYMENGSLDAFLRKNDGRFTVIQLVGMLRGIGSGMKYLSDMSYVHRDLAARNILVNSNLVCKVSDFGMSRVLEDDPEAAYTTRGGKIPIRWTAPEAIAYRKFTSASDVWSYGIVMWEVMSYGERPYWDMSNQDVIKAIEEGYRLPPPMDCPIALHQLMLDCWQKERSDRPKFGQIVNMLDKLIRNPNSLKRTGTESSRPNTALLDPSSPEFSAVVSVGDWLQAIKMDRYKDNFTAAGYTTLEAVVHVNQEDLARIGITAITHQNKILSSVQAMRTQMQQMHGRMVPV
Chain of 1-phosphatidylinositol 3-phosphate 5-kinase (Homo sapiens) (Q9Y2I7 whole entry): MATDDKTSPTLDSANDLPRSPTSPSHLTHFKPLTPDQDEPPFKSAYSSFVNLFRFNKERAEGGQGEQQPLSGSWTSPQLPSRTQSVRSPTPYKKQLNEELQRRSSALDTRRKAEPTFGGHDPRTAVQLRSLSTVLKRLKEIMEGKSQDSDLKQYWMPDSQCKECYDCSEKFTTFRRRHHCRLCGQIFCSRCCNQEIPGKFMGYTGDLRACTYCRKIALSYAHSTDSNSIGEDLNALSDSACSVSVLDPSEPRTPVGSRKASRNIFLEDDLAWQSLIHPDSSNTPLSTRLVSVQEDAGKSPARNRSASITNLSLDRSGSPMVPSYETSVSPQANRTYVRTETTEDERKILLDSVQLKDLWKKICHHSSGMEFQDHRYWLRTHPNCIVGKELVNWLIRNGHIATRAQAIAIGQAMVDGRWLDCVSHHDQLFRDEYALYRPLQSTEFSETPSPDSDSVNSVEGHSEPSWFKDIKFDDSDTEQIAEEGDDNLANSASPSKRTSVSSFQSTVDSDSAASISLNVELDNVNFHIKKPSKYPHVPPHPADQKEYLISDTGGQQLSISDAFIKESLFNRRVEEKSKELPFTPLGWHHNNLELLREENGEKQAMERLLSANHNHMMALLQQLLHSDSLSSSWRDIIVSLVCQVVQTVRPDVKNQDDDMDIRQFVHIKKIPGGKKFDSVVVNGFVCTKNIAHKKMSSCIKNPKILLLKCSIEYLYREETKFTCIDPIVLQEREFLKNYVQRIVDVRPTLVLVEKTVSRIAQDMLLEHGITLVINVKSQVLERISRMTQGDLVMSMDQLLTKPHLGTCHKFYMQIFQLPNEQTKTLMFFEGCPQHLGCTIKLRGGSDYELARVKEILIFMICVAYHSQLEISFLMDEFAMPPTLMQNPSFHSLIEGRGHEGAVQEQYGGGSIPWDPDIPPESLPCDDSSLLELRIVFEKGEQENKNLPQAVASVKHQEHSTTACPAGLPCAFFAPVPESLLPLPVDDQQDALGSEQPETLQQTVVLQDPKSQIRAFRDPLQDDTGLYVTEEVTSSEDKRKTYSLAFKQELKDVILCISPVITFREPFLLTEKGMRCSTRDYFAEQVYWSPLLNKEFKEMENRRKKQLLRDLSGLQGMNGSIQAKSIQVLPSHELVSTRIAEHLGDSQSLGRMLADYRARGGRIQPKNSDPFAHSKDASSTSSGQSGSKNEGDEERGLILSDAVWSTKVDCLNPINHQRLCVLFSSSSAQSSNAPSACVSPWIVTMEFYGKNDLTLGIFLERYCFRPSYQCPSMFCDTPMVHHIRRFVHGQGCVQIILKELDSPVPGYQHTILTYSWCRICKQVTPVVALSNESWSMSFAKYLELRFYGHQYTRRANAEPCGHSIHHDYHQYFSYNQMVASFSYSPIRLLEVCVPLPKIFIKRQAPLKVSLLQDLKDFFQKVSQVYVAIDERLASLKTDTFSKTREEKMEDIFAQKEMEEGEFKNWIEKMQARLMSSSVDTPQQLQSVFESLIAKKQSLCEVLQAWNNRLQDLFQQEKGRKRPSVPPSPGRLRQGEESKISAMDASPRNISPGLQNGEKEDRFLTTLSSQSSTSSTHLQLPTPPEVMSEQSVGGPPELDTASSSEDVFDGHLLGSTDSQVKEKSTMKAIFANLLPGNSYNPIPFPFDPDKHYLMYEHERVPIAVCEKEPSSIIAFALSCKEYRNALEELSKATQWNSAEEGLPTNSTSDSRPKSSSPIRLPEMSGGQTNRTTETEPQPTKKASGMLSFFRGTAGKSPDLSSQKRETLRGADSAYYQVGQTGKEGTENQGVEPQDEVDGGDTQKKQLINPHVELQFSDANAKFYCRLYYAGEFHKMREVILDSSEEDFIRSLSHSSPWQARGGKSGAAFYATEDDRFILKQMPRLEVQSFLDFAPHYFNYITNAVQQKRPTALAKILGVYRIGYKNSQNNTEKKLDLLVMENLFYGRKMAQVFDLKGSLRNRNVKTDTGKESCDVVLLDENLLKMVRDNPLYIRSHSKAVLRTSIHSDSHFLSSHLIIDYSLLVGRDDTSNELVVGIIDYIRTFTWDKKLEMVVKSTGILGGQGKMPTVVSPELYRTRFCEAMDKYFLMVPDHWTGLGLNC

**Q.** How did the inhibition [1] turn out when `CNc1cc(Oc2cc(C(=O)Nc3cc(N4CCN(C)CC4)cc(C(F)(F)F)c3)ccc2C)ncn1` was run?
**A.** Its inhibition is 24.8%.

**Q.** What about the inhibition [2] of the same molecule?
**A.** Its inhibition is -5%.

**Q.** What about the inhibition [3] of the same molecule?
**A.** Its inhibition is 5.3%.

**Q.** What about the inhibition [4] of the same molecule?
**A.** Its inhibition is 31.8%.

**Q.** Which results are given for `CCN1CCN(Cc2ccc(NC(=O)c3ccc(C)c(Oc4ccnc5[nH]ccc45)c3)cc2C(F)(F)F)CC1`?
**A.** inhibition [5]: 0.35%; inhibition [6]: 5.8%; inhibition [7]: -6.3%; inhibition [8]: -8%; inhibition [9]: 18.4%; inhibition [10]: 31.9%; inhibition [11]: -3.1%; inhibition [12]: 79%; inhibition [13]: 65%; inhibition [14]: 11%; inhibition [15]: 7.6%; inhibition [16]: 23%

**Q.** What does the source list for `CCN1CCN(Cc2ccc(NC(=O)c3ccc(C)c(/C=C/c4cnc5[nH]ccc5c4OC)c3)cc2C(F)(F)F)CC1`?
**A.** inhibition [17]: 61%; residual activity [18]: 76%; inhibition [19]: 8.4%; inhibition [20]: 3%
